ChEMBL document CHEMBL1143176, “Design, synthesis, and biological activity of piperidine diamine derivatives as factor Xa inhibitor” (Bioorg Med Chem Lett, 2008)
Converted amounts (≈) assume the structure as drawn.

What was measured:
[1] = Solubility in japanese pharmacopoeia second fluid at pH 6.8; type: physicochemical
[2] = Metabolic stability assessed as intrinsic clearance in human liver microsome; type: ADME; settings: liver microsomes
[3] = Metabolic stability assessed as half life in human liver microsome; type: ADME; settings: liver microsomes
[4] = test system: Plasma; assay: Anticoagulant activity in human plasma assessed as concentration required to double prothrombin time; type: functional
[5] = molecular target: Coagulation factor X (Homo sapiens, UniProt P00742); assay: Inhibition of human factor 10a
Coagulation factor X, sequence (P00742 41-179 limits assumed): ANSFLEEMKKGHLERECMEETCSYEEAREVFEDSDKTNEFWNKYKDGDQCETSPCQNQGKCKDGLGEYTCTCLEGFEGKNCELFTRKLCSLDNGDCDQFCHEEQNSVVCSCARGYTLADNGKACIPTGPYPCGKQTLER
Coagulation factor X, sequence (P00742 235-488 limits assumed): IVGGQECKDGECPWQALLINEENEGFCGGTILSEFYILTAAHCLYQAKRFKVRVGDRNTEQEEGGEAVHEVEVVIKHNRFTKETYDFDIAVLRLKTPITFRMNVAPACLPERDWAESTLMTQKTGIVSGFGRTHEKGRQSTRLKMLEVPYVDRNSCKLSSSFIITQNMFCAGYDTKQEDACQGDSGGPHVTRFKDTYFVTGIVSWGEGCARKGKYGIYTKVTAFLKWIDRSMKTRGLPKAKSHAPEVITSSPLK

[6] = test system: Rattus norvegicus; assay: Ex vivo inhibition of factor 10a in Wistar rat plasma at 10 mg/kg, po after 1 hr; type: functional
[7] = test system: Rattus norvegicus; assay: Ex vivo inhibition of factor 10a in Wistar rat plasma at 10 mg/kg, po after 4 hrs; type: functional
[8] = test system: Rattus norvegicus; assay: Ex vivo inhibition of factor 10a in Wistar rat plasma at 10 mg/kg, po after 0.5 hrs; type: functional
[9] = test system: Rattus norvegicus; assay: Ex vivo inhibition of factor 10a in Wistar rat plasma at 10 mg/kg, po after 2 hrs; type: functional
[10] = Tmax in monkey at 1.0 mg/kg, po; type: ADME, organism-based, Macaca mulatta; parameters: dose 1 mg/kg, route oral; settings: rhesus monkey, in vivo
[11] = Cmax in monkey at 1.0 mg/kg, po; type: ADME, organism-based, Macaca mulatta; parameters: dose 1 mg/kg, route oral; settings: rhesus monkey, in vivo
[12] = AUC (0 to 24 hrs) in monkey at 1.0 mg/kg, po; type: ADME, organism-based, Macaca mulatta; parameters: time < 24 hr, dose 1 mg/kg, route oral; settings: rhesus monkey, plasma

SMILES	solubility [1] [µg/mL]	CLint scaled [2] [mL/min/kg]	half-life [3] [min]	IC50 [5] [nM]	Activity [4] [µM]	further results
CN1CCc2nc(C(=O)N[C@@H]3CCCC[C@@H]3NC(=O)c3cc4cc(Cl)ccc4[nH]3)sc2C1	16 (≈ 33.9 µM)	97.2	6.42			
CN1CCc2nc(C(=O)N[C@@H]3CN(C(=O)CO)CC[C@@H]3NC(=O)c3cc4cc(Cl)ccc4[nH]3)sc2C1	410 (≈ 772 µM)			9.3	0.9	inhibition in vivo at 10 mg/kg [6]: -2%; inhibition in vivo at 10 mg/kg [7]: -7.3%; inhibition in vivo at 10 mg/kg [8]: 0.76%; inhibition in vivo at 10 mg/kg [9]: -2.5%
COC(=O)CN1CC[C@H](NC(=O)c2cc3cc(Cl)ccc3[nH]2)[C@H](NC(=O)c2nc3c(s2)CN(C)CC3)C1	28 (≈ 51.4 µM)			56	2.1	
COCCN1CC[C@H](NC(=O)c2cc3cc(Cl)ccc3[nH]2)[C@H](NC(=O)c2nc3c(s2)CN(C)CC3)C1	130 (≈ 245 µM)			47	3.8	
CCNC(=O)N1CC[C@H](NC(=O)c2cc3cc(Cl)ccc3[nH]2)[C@H](NC(=O)c2nc3c(s2)CN(C)CC3)C1	220 (≈ 404 µM)			7.8	0.8	inhibition in vivo at 10 mg/kg [6]: 11.4%; inhibition in vivo at 10 mg/kg [7]: 4.3%; inhibition in vivo at 10 mg/kg [8]: 16.7%; inhibition in vivo at 10 mg/kg [9]: 5.3%
CN1CCc2nc(C(=O)N[C@@H]3CN(CC(=O)O)CC[C@@H]3NC(=O)c3cc4cc(Cl)ccc4[nH]3)sc2C1	723 (≈ 1360 µM)			26	1.8	
CN1CCc2nc(C(=O)N[C@@H]3CCCC[C@@H]3NC(=O)c3cc4cc(Cl)ccc4[nH]3)sc2C1.Cl						Tmax [10]: 120 min; Cmax [11]: 23.3 ng/mL; AUC(0-t) at 24 h [12]: 56.6 ng·h/mL
COCC(=O)N1CC[C@H](NC(=O)c2cc3cc(Cl)ccc3[nH]2)[C@H](NC(=O)c2nc3c(s2)CN(C)CC3)C1.Cl						Tmax [10]: 72 min; Cmax [11]: 36.4 ng/mL; AUC(0-t) at 24 h [12]: 83.6 ng·h/mL
CN1CCc2nc(C(=O)NC3CN(C(=O)CO)CCC3NC(=O)c3cc4cc(Cl)ccc4[nH]3)sc2C1 (racemic)		41.4	15.1			
CN1CCc2nc(C(=O)NC3CCCCC3NC(=O)c3cc4cc(Cl)ccc4[nH]3)sc2C1 (racemic)	17 (≈ 36 µM)	81	7.7		4.4	
CN1CCc2nc(C(=O)NC3CNCCC3NC(=O)c3cc4cc(Cl)ccc4[nH]3)sc2C1 (racemic)	996 (≈ 2110 µM)			62	1.3	
CN1CCc2nc(C(=O)NC3CCN(S(C)(=O)=O)CC3NC(=O)c3cc4cc(Cl)ccc4[nH]3)sc2C1 (racemic)	70 (≈ 127 µM)			45	8	
CN1CCc2nc(C(=O)NC3CCNCC3NC(=O)c3cc4cc(Cl)ccc4[nH]3)sc2C1 (racemic)	830 (≈ 1750 µM)			530	>20	
CCNC(=O)N1CCC(NC(=O)c2cc3cc(Cl)ccc3[nH]2)C(NC(=O)c2nc3c(s2)CN(C)CC3)C1 (racemic)		86.4	7.22			
CN1CCc2nc(C(=O)NC3CN(S(C)(=O)=O)CCC3NC(=O)c3cc4cc(Cl)ccc4[nH]3)sc2C1 (racemic)	103 (≈ 187 µM)			28	2.5	

Now from value to compound, other results behind:

solubility [1] [µg/mL]	CLint scaled [2] [mL/min/kg]	half-life [3] [min]	IC50 [5] [nM]	SMILES	Activity [4] [µM]	further results
66 (≈ 122 µM)			5.6	CC(C)C(=O)N1CC[C@H](NC(=O)c2cc3cc(Cl)ccc3[nH]2)[C@H](NC(=O)c2nc3c(s2)CN(C)CC3)C1	1.1	
39 (≈ 68.2 µM)			4.8	CN1CCc2nc(C(=O)N[C@@H]3CN(C(=O)NC(C)(C)C)CC[C@@H]3NC(=O)c3cc4cc(Cl)ccc4[nH]3)sc2C1	0.78	
160 (≈ 302 µM)			9	CCC(=O)N1CC[C@H](NC(=O)c2cc3cc(Cl)ccc3[nH]2)[C@H](NC(=O)c2nc3c(s2)CN(C)CC3)C1	0.78	
510 (≈ 936 µM)			5.8	COCC(=O)N1CC[C@H](NC(=O)c2cc3cc(Cl)ccc3[nH]2)[C@H](NC(=O)c2nc3c(s2)CN(C)CC3)C1	0.78	inhibition in vivo at 10 mg/kg [6]: 50%; inhibition in vivo at 10 mg/kg [7]: 16%; inhibition in vivo at 10 mg/kg [8]: 68%; inhibition in vivo at 10 mg/kg [9]: 38%
56 (≈ 103 µM)				CN1CCc2nc(C(=O)N[C@@H]3CN(C(=O)N(C)C)CC[C@@H]3NC(=O)c3cc4cc(Cl)ccc4[nH]3)sc2C1		inhibition in vivo at 10 mg/kg [6]: 78.6%; inhibition in vivo at 10 mg/kg [7]: 68.1%; inhibition in vivo at 10 mg/kg [8]: 80.2%; inhibition in vivo at 10 mg/kg [9]: 73.7%
	103	6.08		CCC(=O)N1CCC(NC(=O)c2cc3cc(Cl)ccc3[nH]2)C(NC(=O)c2nc3c(s2)CN(C)CC3)C1 (racemic)		
	45.9	13.6		COCC(=O)N1CCC(NC(=O)c2cc3cc(Cl)ccc3[nH]2)C(NC(=O)c2nc3c(s2)CN(C)CC3)C1 (racemic)		
421 (≈ 817 µM)	95.4	6.54		CC(=O)N1CCC(NC(=O)c2cc3cc(Cl)ccc3[nH]2)C(NC(=O)c2nc3c(s2)CN(C)CC3)C1 (racemic)		
	92.7	6.73		CN1CCc2nc(C(=O)NC3CN(C(=O)N(C)C)CCC3NC(=O)c3cc4cc(Cl)ccc4[nH]3)sc2C1 (racemic)		
37 (≈ 67.9 µM)			110	CCOC(=O)N1CCC(NC(=O)c2nc3c(s2)CN(C)CC3)C(NC(=O)c2cc3cc(Cl)ccc3[nH]2)C1 (racemic)	11	
290 (≈ 563 µM)			48	CC(=O)N1CCC(NC(=O)c2nc3c(s2)CN(C)CC3)C(NC(=O)c2cc3cc(Cl)ccc3[nH]2)C1 (racemic)	5.8	
43 (≈ 78.9 µM)	138	4.53	4.5	CCOC(=O)N1CCC(NC(=O)c2cc3cc(Cl)ccc3[nH]2)C(NC(=O)c2nc3c(s2)CN(C)CC3)C1 (racemic)	1.4	
< 1			130	CN1CCc2nc(C(=O)NC3CCN(C(=O)OC(C)(C)C)CC3NC(=O)c3cc4cc(Cl)ccc4[nH]3)sc2C1 (racemic)	6.2	
	99.9	6.24		CN1CCc2nc(C(=O)NC3CN(C(=O)NC(C)(C)C)CCC3NC(=O)c3cc4cc(Cl)ccc4[nH]3)sc2C1 (racemic)		
3 (≈ 5.23 µM)	140	4.44	10	CN1CCc2nc(C(=O)NC3CN(C(=O)OC(C)(C)C)CCC3NC(=O)c3cc4cc(Cl)ccc4[nH]3)sc2C1 (racemic)	3.5	
	98.1	6.36		CC(C)C(=O)N1CCC(NC(=O)c2cc3cc(Cl)ccc3[nH]2)C(NC(=O)c2nc3c(s2)CN(C)CC3)C1 (racemic)		
